Reference: article PMC12888861, “Antibacterial activity of enmetazobactam against Acinetobacter spp.: a molecular dissection of mechanism of action and resistance determinants” (Antimicrobial Agents and Chemotherapy, 2025)

Key:
[1] = test system: carbapenem-resistant A. baumannii (CRAB) isolates (n = 67); experiment: MIC, broth microdilution (EUCAST), carbapenem-resistant A. baumannii isolates; format: cell-based, Acinetobacter baumannii; details: ETZ fixed 8 mg/L in combinations; for MIC: Acinetobacter baumannii
Source text: (§1) The bacterial strains used in this study comprised 208 clinical isolates from the Spanish National Acinetobacter spp. 2020 Multicenter Collection, which was previously characterized in detail by our research group, including whole-genome sequencing, phylogenetics studies, clonal dynamics, and resistance mechanisms ([2], [29]). Additionally, a collection of A. baumannii ATCC 17978 transformants coding the blaOXA-23, blaOXA-24/40, blaOXA-51, blaOXA-58, blaOXA-143, and blaOXA-201 genes, previously constructed and described by our group ([30]), was used to determine the activity of enmetazobactam against strains carrying the main CHDLs of A. baumannii.
(§2) The antimicrobial susceptibility of the 208 Acinetobacter spp. isolates was assessed using the broth microdilution method, as described in the European Committee on Antimicrobial Susceptibility Testing (EUCAST) v.15 guidelines (http://www.eucast.org/clinical_breakpoints). […] MICs for enmetazobactam alone were assessed as well. […] Subsequently, MIC testing was also conducted with a collection of A. baumannii ATCC 17978 transformants expressing clinically relevant OXA-like carbapenemase genes.
(§3) The A. baumannii ATCC 19606 strain was used as the reference strain in all susceptibility experiments, in duplicate assays. Antibiotics were purchased from Sigma-Aldrich, except enmetazobactam and durlobactam, which were obtained from Advanz Pharma and MedChemExpress, respectively.

[2] = test system: carbapenem-susceptible A. baumannii isolates (n = 54); experiment: MIC, broth microdilution (EUCAST), carbapenem-susceptible A. baumannii isolates; format: cell-based, Acinetobacter baumannii; details: for MIC: in combinations ETZ fixed at 8 mg/L
Source text: as §1, §2, §3

[3] = Acinetobacter baumannii, carbapenem-susceptible A. baumannii isolates (n = 54), ETZ fixed 8 mg/L in combinations
[4] = […], ETZ fixed 8 mg/L in combinations

CO/N=C(\C(=O)N[C@@H]1C(=O)N2C(C(=O)[O-])=C(C[N+]3(C)CCCC3)CS[C@H]12)c1csc(N)n1 [cefepime]
MIC ([1]; isolate Ab56, ST 1, ADC-75, OXA-69, OXA-23): 32 µg/mL
MIC ([1]; isolate Ab83, ST 25, ADC-5, OXA-64, OXA-23): 64 µg/mL
MIC ([1]; isolate Ab109, ST 1, ADC-75, OXA-69, OXA-23): 64 µg/mL
MIC ([1]; isolate Ab133, ST 2, ADC-30, OXA-66, OXA-58, TEM-12): 32 µg/mL
MIC ([1]; isolate Ab134, ST 2, ADC-30, OXA-66, OXA-58, TEM-12): 16 µg/mL
MIC ([1]; isolate Ab137, ST 85, ADC-2, OXA-94, OXA-23): 64 µg/mL
MIC ([1]; isolate Ab138, ST 745, ADC-30, OXA-66, OXA-58): 32 µg/mL
MIC ([1]; isolate Ab140, ST 85, ADC-2, OXA-94, OXA-23): 32 µg/mL
MIC ([1]; isolate Ab141, ST 745, ADC-30, OXA-66, OXA-58): 32 µg/mL
MIC ([1]; isolate Ab144, ST 745, ADC-30, OXA-66, OXA-58): 32 µg/mL
MIC ([1]; isolate Ab169, ST 2, ADC-30, OXA-66, OXA-23): 32 µg/mL
MIC ([1]; isolate Ab171, ST 2, ADC-30, OXA-66, OXA-23): 32 µg/mL
MIC ([1]; isolate Ab173, ST 2, ISAba1-ADC-30, OXA-66, OXA-23): ≥ 128 µg/mL
MIC ([1]; isolate Ab174, ST 2, ADC-30, OXA-66, OXA-23): 32 µg/mL
MIC ([1]; isolate Ab179, ST 2, ADC-30, OXA-66, OXA-23): 64 µg/mL
MIC ([1]; isolate Ab180, ST 2, ADC-30, OXA-66, OXA-24/40): 16 µg/mL
MIC ([1]; isolate Ab181, ST 2, ADC-30, OXA-66, OXA-23): 32 µg/mL
MIC ([1]; isolate Ab182, ST 2, ADC-30, OXA-66, OXA-23): 16 µg/mL
MIC ([1]; isolate Ab183, ST 2, ADC-30, OXA-66, OXA-23): 32 µg/mL
MIC ([1]; isolate Ab184, ST 2, ADC-30, OXA-66, OXA-23): ≥ 128 µg/mL
MIC ([1]; isolate Ab186, ST 2, ADC-30, OXA-66, OXA-23): 32 µg/mL
MIC ([1]; isolate Ab191, ST 2, ADC-30, OXA-66, OXA-23): 32 µg/mL
MIC ([1]; isolate Ab192, ST 2, ADC-30, OXA-66, OXA-23): 32 µg/mL
MIC ([1]; isolate Ab194, ST 2, ADC-30, OXA-66, OXA-23): 32 µg/mL
MIC ([1]; isolate Ab199, ST 2, ADC-30, OXA-66, OXA-23): 32 µg/mL
MIC ([1]; isolate Ab201, ST 2, ADC-30, OXA-66, OXA-23): 64 µg/mL
MIC ([1]; isolate Ab204, ST 2, ADC-30, OXA-66, OXA-23): 16 µg/mL
MIC distribution 0.12 ([1]; cumulative share of CRAB isolates (n = 67) at MIC 0.12 mg/L): 0
MIC distribution 0.25 ([1]; cumulative share of CRAB isolates (n = 67) at MIC 0.25 mg/L): 0
MIC distribution 0.5 ([1]; cumulative share of CRAB isolates (n = 67) at MIC 0.5 mg/L): 0
MIC distribution 1 ([1]; cumulative share of CRAB isolates (n = 67) at MIC 1 mg/L): 0
MIC distribution 2 ([1]; cumulative share of CRAB isolates (n = 67) at MIC 2 mg/L): 0
MIC distribution 4 ([1]; cumulative share of CRAB isolates (n = 67) at MIC 4 mg/L): 1.5
MIC distribution 8 ([1]; cumulative share of CRAB isolates (n = 67) at MIC 8 mg/L): 3.0
MIC distribution 16 ([1]; cumulative share of CRAB isolates (n = 67) at MIC 16 mg/L): 22.4
MIC distribution 32 ([1]; cumulative share of CRAB isolates (n = 67) at MIC 32 mg/L): 70.1
MIC distribution 64 ([1]; cumulative share of CRAB isolates (n = 67) at MIC 64 mg/L): 97.0
MIC distribution 0.12 [2]: 0
MIC ([2]; Acinetobacter baumannii, isolate Ab1, ST 164, ADC-6, OXA-91): 2 µg/mL
MIC ([2]; Acinetobacter baumannii, isolate Ab11, ST 239, ADC-2, OXA-51): 2 µg/mL
MIC ([2]; Acinetobacter baumannii, isolate Ab34, ST 2182, ADC-2, OXA-130): 2 µg/mL
MIC ([2]; Acinetobacter baumannii, isolate Ab38, ST 866, ADC-2, OXA-385): 8 µg/mL
MIC ([2]; Acinetobacter baumannii, isolate Ab40, ST 2176, ADC-2, OXA-64): 2 µg/mL
MIC ([2]; Acinetobacter baumannii, isolate Ab50, ST 2176, ADC-2, OXA-64): 2 µg/mL
MIC ([2]; Acinetobacter baumannii, isolate Ab57, ST 1470, ADC-58, OXA-106): 2 µg/mL
MIC ([2]; Acinetobacter baumannii, isolate Ab58, ST 6, ADC-2, OXA-94): 4 µg/mL
MIC ([2]; Acinetobacter baumannii, isolate Ab61, ST 1639, ADC-7, OXA-64): 1 µg/mL
MIC ([2]; Acinetobacter baumannii, isolate Ab62, ST 265, ADC-2, OXA-91): 1 µg/mL
MIC ([2]; Acinetobacter baumannii, isolate Ab67, ST 1, ADC-11, OXA-69): 2 µg/mL
MIC ([2]; Acinetobacter baumannii, isolate Ab79, ST 106, ADC-11, OXA-78): 1 µg/mL
MIC ([2]; Acinetobacter baumannii, isolate Ab80, ST 2182, ADC-6, OXA-208): 1 µg/mL
MIC ([2]; Acinetobacter baumannii, isolate Ab81, ST 25, ADC-79, OXA-64): 2 µg/mL
MIC ([2]; Acinetobacter baumannii, isolate Ab93, ST 25, ADC-79, OXA-64): 2 µg/mL
MIC ([2]; Acinetobacter baumannii, isolate Ab95, ST 582, ADC-5, OXA-317): 2 µg/mL
MIC ([2]; Acinetobacter baumannii, isolate Ab96, ST 582, ADC-5, OXA-317): 1 µg/mL
MIC ([2]; Acinetobacter baumannii, isolate Ab100, ST 145, ADC-58, OXA-343): 2 µg/mL
MIC ([2]; Acinetobacter baumannii, isolate Ab110, ST 1623, ADC-3, OXA-70): 8 µg/mL
MIC ([2]; Acinetobacter baumannii, isolate Ab112, ST 193, ADC-like, OXA-120): 0.5 µg/mL
MIC ([2]; Acinetobacter baumannii, isolate Ab124, ST 2176, ADC-2, OXA-64): 1 µg/mL
MIC ([2]; Acinetobacter baumannii, isolate Ab127, ST 2176, ADC-2, OXA-64): 2 µg/mL
MIC ([2]; Acinetobacter baumannii, isolate Ab128, ST 2176, ADC-2, OXA-64): 1 µg/mL
MIC ([2]; Acinetobacter baumannii, isolate Ab130, ST 32, ADC-79, OXA-100): 4 µg/mL
MIC ([2]; Acinetobacter baumannii, isolate Ab131, ST 687, ADC-like, OXA-208): 0.5 µg/mL
MIC ([2]; Acinetobacter baumannii, isolate Ab132, ST 1112, ADC-79, OXA-89): 4 µg/mL
MIC ([2]; Acinetobacter baumannii, isolate Ab136, ST 2183, ADC-like, OXA-66): 2 µg/mL
MIC ([2]; Acinetobacter baumannii, isolate Ab139, ST 54, ADC-like, OXA-365): 2 µg/mL
MIC ([2]; Acinetobacter baumannii, isolate Ab142, ST 1, ADC-like, OXA-69): 16 µg/mL
MIC ([2]; Acinetobacter baumannii, isolate Ab143, ST 1328, ADC-76, OXA-408): 2 µg/mL
MIC ([2]; Acinetobacter baumannii, isolate Ab149, ST 1112, ADC-6, OXA-407): 2 µg/mL
MIC ([2]; Acinetobacter baumannii, isolate Ab150, ST 2184, ADC-like, OXA-64): 2 µg/mL
MIC ([2]; Acinetobacter baumannii, isolate Ab152, ST 132, ADC-2, OXA-120): 2 µg/mL
MIC ([2]; Acinetobacter baumannii, isolate Ab158, ST 2034, ADC-2, OXA-217): 0.5 µg/mL
MIC ([2]; Acinetobacter baumannii, isolate Ab163, ST 132, ADC-2, OXA-120): 0.5 µg/mL
MIC ([2]; Acinetobacter baumannii, isolate Ab167, ST 1623, ADC-like, OXA-345): 1 µg/mL
MIC ([2]; Acinetobacter baumannii, isolate Ab168, ST 1470, ADC-75, OXA-402): 1 µg/mL
MIC ([2]; Acinetobacter baumannii, isolate Ab170, ST 2110, ADC-4, OXA-338): 2 µg/mL
MIC ([2]; Acinetobacter baumannii, isolate Ab172, ST 2185, ADC-5, OXA-217): 1 µg/mL
MIC ([2]; Acinetobacter baumannii, isolate Ab185, ST 2, ADC-26, OXA-66): 4 µg/mL
MIC ([2]; Acinetobacter baumannii, isolate Ab187, ST 105, ADC-2, OXA-430): 0.5 µg/mL
MIC ([2]; Acinetobacter baumannii, isolate Ab188, ST 203, ADC-6, OXA-217, PDC-1): 0.5 µg/mL
MIC ([2]; Acinetobacter baumannii, isolate Ab189, ST 1405, ADC-3, OXA-120): 1 µg/mL
MIC ([2]; Acinetobacter baumannii, isolate Ab190, ST 2186, ADC-6, OXA-413): 1 µg/mL
MIC ([2]; Acinetobacter baumannii, isolate Ab193, ST 164, ADC-6, OXA-91): 1 µg/mL
MIC ([2]; Acinetobacter baumannii, isolate Ab195, ST 1, ADC-11, OXA-69): 2 µg/mL
MIC ([2]; Acinetobacter baumannii, isolate Ab200, ST 1336, ADC-2, OXA-51): 2 µg/mL
MIC ([2]; Acinetobacter baumannii, isolate Ab202, ST 1, ADC-11, OXA-69): 2 µg/mL
MIC ([2]; Acinetobacter baumannii, isolate Ab203, ST 221, ADC-6, OXA-88): 1 µg/mL
MIC ([2]; Acinetobacter baumannii, isolate Ab206, ST 2187, ADC-58, OXA-69): 1 µg/mL
MIC ([2]; Acinetobacter baumannii, isolate Ab209): 1 µg/mL
MIC ([2]; Acinetobacter baumannii, isolate Ab213): 1 µg/mL
MIC ([2]; Acinetobacter baumannii, isolate Ab218): 2 µg/mL
MIC ([2]; Acinetobacter baumannii, isolate Ab220): 0.5 µg/mL
MIC50 [2, 3]: 4 µg/mL
MIC90 [2, 3]: 8 µg/mL
MIC distribution 0.25 [2, 4]: 0
MIC distribution 0.5 [2, 4]: 0
MIC distribution 1 [2, 4]: 13.0
MIC distribution 2 [2, 4]: 44.4
MIC distribution 4 [2, 4]: 87.0
MIC distribution 8 [2, 4]: 94.4
MIC distribution 16 [2, 4]: 98.1
MIC distribution ≤0.06 [2, 4]: 0
MIC distribution ≥32 [2, 4]: 100
